Data from patent publication US10501425B2, “Microbiocidal oxadiazole derivatives” (SYNGENTA PARTICIPATIONS AG, priority 2015, dated 2019).

How the values were obtained:
[1] = system: Puccinia recondita f. Sp. Tritici; assay: Puccinia recondita f. sp. tritici / wheat / leaf disc curative (brown rust); assay type: in vivo; conditions: foliar, 24 h, 200 ppm in the applied formulation, wheat leaf segments cv. Kanzler, curative (applied 1 day after inoculation), compared to untreated, read-out: disease control
Outline: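 Curative leaf-segment test, cv. Kanzler: spore inoculation, dark storage 19° C/75% RH, compound spray 1 day post-inoculation. Then 12 h light/12 h dark, 19° C, 75% RH. Read-out: % disease control vs untreated check, 6–8 d after application.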

[2] = system: Puccinia recondita f. Sp. Tritici; assay: Puccinia recondita f. sp. tritici / wheat / leaf disc preventative (brown rust); assay type: in vivo; conditions: foliar, 200 ppm in the applied formulation, wheat leaf segments cv. Kanzler, preventative (inoculated 1 day after application), compared to untreated, read-out: disease control
Outline: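 Preventative leaf-segment test: compound at 200 ppm applied by spray to Kanzler wheat, with spore inoculation following after one day. Disease control relative to untreated check read 7 to 9 days post-application, incubation at 19° C., 75% relative humidity, 12 h light/12 h dark.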

Phakopsora pachyrhizi = Phakopsora pachyrhizi / soybean / leaf disc preventative (Asian soybean rust); assay type: in vivo; conditions: foliar, 200 ppm in the applied formulation, soybean leaf disks, compared to untreated, read-out: disease control
Procedure: Leaf disks or leaf segments of various plant species are cut from plants grown in a greenhouse. The cut leaf disks or segments are placed in multiwell plates (24-well format) onto water agar. The leaf disks are sprayed with a test solution before (preventative) or after (curative) inoculation. Compounds to be tested are prepared as DMSO solutions (max. 10 mg/ml) which are diluted to the appropriate concentration with 0.025% Tween20 just before spraying. The inoculated leaf disks or segments are incubated under defined conditions (temperature, relative humidity, light, etc.) according to the respective test system. A single evaluation of disease level is carried out 3 to 14 days after inoculation, depending on the pathosystem. Percent disease control relative to the untreated check leaf disks or segments is then calculated.
Soybean leaf disks are placed on water agar in multiwell plates (24-well format) and sprayed with the formulated test compound diluted in water. One day after application leaf discs are inoculated by spraying a spore suspension on the lower leaf surface. After an incubation period in a climate cabinet of 24-36 hours in darkness at 20° C. and 75% rh leaf disc are kept at 20° C. with 12 h light/day and 75% rh. The activity of a compound is assessed as percent disease control compared to untreated when an appropriate level of disease damage appears in untreated check leaf disks (12 to 14 days after application).
The following compounds at 200 ppm in the applied formulation give at least 80% disease control in this test when compared to untreated control leaf disks under the same conditions, which show extensive disease development.

[3] = system: Glomerella lacenarium (Colletotrichum lagenarium); assay: Glomerella lagenarium liquid culture / cucumber / preventative (anthracnose); assay type: cell-based; conditions: Colletotrichum orbiculare; 20 ppm in the applied formulation; liquid culture (PDB), growth inhibition measured photometrically 3 to 4 days after application; compared to untreated; read-out: disease control
Outline: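 Conidia from cryogenic storage were mixed into potato dextrose broth. This was added to compound diluted from DMSO into 0.025% Tween20, tested at 20 ppm. Plates were incubated in the dark at 24 °C and 96% relative humidity, and growth was read photometrically after 2–7 days as % activity versus untreated check.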

CC(C)CC(=O)NCc1ccc(-c2noc(C(F)(F)F)n2)cc1 [Compound 1.12, 3-methyl-N-[[4-[5-(trifluoromethyl)-1,2,4-oxadiazol-3-yl]phenyl]methyl]butanamide] showed a pest or weed control at 200 ppm [1] of no less than 80%, a pest or weed control at 200 ppm [2] of no less than 80% and a pest or weed control at 200 ppm (Phakopsora pachyrhizi) of no less than 80%. It also gave an inhibition of growth at 20 ppm [3] of no less than 80%.

For CC(C)C(=O)NCc1ccc(-c2noc(C(F)(F)F)n2)c(F)c1 [Compound 1.77, N-[[3-fluoro-4-[5-(trifluoromethyl)-1,2,4-oxadiazol-3-yl]phenyl]methyl]-2-methyl-propanamide], the pest or weed control at 200 ppm [1] was no less than 80%, the pest or weed control at 200 ppm [2] was no less than 80% and the pest or weed control at 200 ppm (Phakopsora pachyrhizi) was no less than 80%. For the same molecule, the inhibition of growth at 20 ppm [3] was no less than 80%.

With CC(C)NC(=O)NCc1ccc(-c2noc(C(F)(F)F)n2)cc1 [Compound 3.9, 1-isopropyl-3-[[4-[5-(trifluoromethyl)-1,2,4-oxadiazol-3-yl]phenyl]methyl]urea] the pest or weed control at 200 ppm [1] was no less than 80%, the pest or weed control at 200 ppm [2] was no less than 80% and the pest or weed control at 200 ppm (Phakopsora pachyrhizi) was no less than 80%. It also gave an inhibition of growth at 20 ppm [3] of no less than 80%.

CC(C)C(=O)NCc1ccc(-c2noc(C(F)(F)F)n2)c(F)c1F [Compound 1.49, N-[[2,3-difluoro-4-[5-(trifluoromethyl)-1,2,4-oxadiazol-3-yl]phenyl]methyl]-2-methyl-propanamide] showed a pest or weed control at 200 ppm [1] of no less than 80%, a pest or weed control at 200 ppm [2] of no less than 80% and a pest or weed control at 200 ppm (Phakopsora pachyrhizi) of no less than 80%. For the same molecule, the inhibition of growth at 20 ppm [3] was no less than 80%.

COCC(=O)NCc1ccc(-c2noc(C(F)(F)F)n2)c(F)c1 [Compound 1.80] gave a pest or weed control at 200 ppm [1] of no less than 80%, a pest or weed control at 200 ppm [2] of no less than 80% and a pest or weed control at 200 ppm (Phakopsora pachyrhizi) of no less than 80%. For the same molecule, the inhibition of growth at 20 ppm [3] was no less than 80%.

For CCC(=O)NCc1ccc(-c2noc(C(F)(F)F)n2)cc1C(F)(F)F [Compound 1.31, N-[[2-(trifluoromethyl)-4-[5-(trifluoromethyl)-1,2,4-oxadiazol-3-yl]phenyl]methyl]propanamide], the melting point was 100 to 102 °C.

Work on CC(=O)NCc1ccc(-c2noc(C(F)(F)F)n2)c(F)c1 [Compound 1.47, N-[[3-fluoro-4-[5-(trifluoromethyl)-1,2,4-oxadiazol-3-yl]phenyl]methyl]acetamide] yielded a pest or weed control at 200 ppm [1] of no less than 80%, a pest or weed control at 200 ppm [2] of no less than 80% and a pest or weed control at 200 ppm (Phakopsora pachyrhizi) of no less than 80%. The inhibition of growth at 20 ppm [3] was no less than 80%.

In the case of CC(C)C(=O)NCCc1ccc(-c2noc(C(F)(F)F)n2)cc1 [Compound 1.83, 2-methyl-N-[2-[4-[5-(trifluoromethyl)-1,2,4-oxadiazol-3-yl]phenyl]ethyl]propanamide], the pest or weed control at 200 ppm [1] was no less than 80%, the pest or weed control at 200 ppm [2] was no less than 80% and the pest or weed control at 200 ppm (Phakopsora pachyrhizi) was no less than 80%. For the same molecule, the inhibition of growth at 20 ppm [3] was no less than 80%.

For CCC(C)(CC)C(=O)NCc1ccc(-c2noc(C(F)(F)F)n2)cc1 [Compound 1.20, 2-ethyl-2-methyl-N-[[4-[5-(trifluoromethyl)-1,2,4-oxadiazol-3-yl]phenyl]methyl]butanamide], the pest or weed control at 200 ppm [1] was no less than 80%, the pest or weed control at 200 ppm [2] was no less than 80% and the pest or weed control at 200 ppm (Phakopsora pachyrhizi) was no less than 80%. For the same molecule, the inhibition of growth at 20 ppm [3] was no less than 80%.

In the case of CCCC(=O)NCc1ccc(-c2noc(C(F)(F)F)n2)cc1 [Compound 1.10, N-[[4-[5-(trifluoromethyl)-1,2,4-oxadiazol-3-yl]phenyl]methyl]butanamide], the pest or weed control at 200 ppm [1] was no less than 80%, the pest or weed control at 200 ppm [2] was no less than 80% and the pest or weed control at 200 ppm (Phakopsora pachyrhizi) was no less than 80%. The inhibition of growth at 20 ppm [3] was no less than 80%.

In the case of CCOCCOC(=O)NCc1ccc(-c2noc(C(F)(F)F)n2)cc1C(F)(F)F [Compound 2.2, 2-ethoxyethyl N-[[2-(trifluoromethyl)-4-[5-(trifluoromethyl)-1,2,4-oxadiazol-3-yl]phenyl]methyl]carbamate], the melting point was 60 to 66 °C and the inhibition of growth at 20 ppm [3] was no less than 80%.

In the case of O=C(NCc1ccc(-c2noc(C(F)(F)F)n2)cc1)OCCCCCl [Compound 2.13, 4-chlorobutyl N-[[4-[5-(trifluoromethyl)-1,2,4-oxadiazol-3-yl]phenyl]methyl]carbamate], the pest or weed control at 200 ppm [1] was no less than 80%, the pest or weed control at 200 ppm [2] was no less than 80% and the pest or weed control at 200 ppm (Phakopsora pachyrhizi) was no less than 80%. For the same molecule, the inhibition of growth at 20 ppm [3] was no less than 80%.

CCCC(=O)NCc1ccc(-c2noc(C(F)(F)F)n2)c(F)c1F [Compound 1.51, N-[[2,3-difluoro-4-[5-(trifluoromethyl)-1,2,4-oxadiazol-3-yl]phenyl]methyl]butanamide] gave a pest or weed control at 200 ppm [1] of no less than 80%, a pest or weed control at 200 ppm [2] of no less than 80% and a pest or weed control at 200 ppm (Phakopsora pachyrhizi) of no less than 80%. For the same molecule, the inhibition of growth at 20 ppm [3] was no less than 80%.

In the case of CCC(=O)NCc1ccc(-c2noc(C(F)(F)F)n2)cc1C [Compound 1.81, N-[[2-methyl-4-[5-(trifluoromethyl)-1,2,4-oxadiazol-3-yl]phenyl]methyl]propanamide], the melting point was 140 to 143 °C and the inhibition of growth at 20 ppm [3] was no less than 80%.

Molecule CCCCOC(=O)NCc1ccc(-c2noc(C(F)(F)F)n2)cc1 [Compound 2.11, butyl N-[[4-[5-(trifluoromethyl)-1,2,4-oxadiazol-3-yl]phenyl]methyl]carbamate] has a pest or weed control at 200 ppm [1] of no less than 80%, a pest or weed control at 200 ppm [2] of no less than 80% and a pest or weed control at 200 ppm (Phakopsora pachyrhizi) of no less than 80%. It also gave an inhibition of growth at 20 ppm [3] of no less than 80%.

CC(C)C(=O)NCc1ccc(-c2noc(C(F)(F)F)n2)nc1 [Compound 1.106, 2-methyl-N-[[6-[5-(trifluoromethyl)-1,2,4-oxadiazol-3-yl]-3-pyridyl]methyl]propanamide] gave a melting point of 151 to 153 °C, a pest or weed control at 200 ppm [1] of no less than 80% and a pest or weed control at 200 ppm [2] of no less than 80%.

For CCC(=O)NCc1ccc(-c2noc(C(F)(F)F)n2)cc1OC [Compound 1.30, N-[[2-methoxy-4-[5-(trifluoromethyl)-1,2,4-oxadiazol-3-yl]phenyl]methyl]propanamide], the melting point was 163 to 165 °C.

Molecule CCN(C)C(=O)NCc1ccc(-c2noc(C(F)(F)F)n2)cc1 [Compound 3.13, 1-ethyl-1-methyl-3-[[4-[5-(trifluoromethyl)-1,2,4-oxadiazol-3-yl]phenyl]methyl]urea] has a pest or weed control at 200 ppm [1] of no less than 80%, a pest or weed control at 200 ppm [2] of no less than 80% and a pest or weed control at 200 ppm (Phakopsora pachyrhizi) of no less than 80%. It also gave an inhibition of growth at 20 ppm [3] of no less than 80%.

CC(C)C(=O)NCc1ccc(-c2noc(C(F)(F)F)n2)cc1 [Compound 1.6, 2-methyl-N-[[4-[5-(trifluoromethyl)-1,2,4-oxadiazol-3-yl]phenyl]methyl]propanamide] gave a pest or weed control at 200 ppm [1] of no less than 80%, a pest or weed control at 200 ppm [2] of no less than 80% and a pest or weed control at 200 ppm (Phakopsora pachyrhizi) of no less than 80%. For the same molecule, the inhibition of growth at 20 ppm [3] was no less than 80%.

In the case of CCCC(C)(C)C(=O)NCc1ccc(-c2noc(C(F)(F)F)n2)cc1 [Compound 1.4, 2,2-dimethyl-N-[[4-[5-(trifluoromethyl)-1,2,4-oxadiazol-3-yl]phenyl]methyl]pentanamide], the pest or weed control at 200 ppm [1] was no less than 80%, the pest or weed control at 200 ppm [2] was no less than 80% and the pest or weed control at 200 ppm (Phakopsora pachyrhizi) was no less than 80%. The inhibition of growth at 20 ppm [3] was no less than 80%.

Work on CCN(CC)C(=O)NCc1ccc(-c2noc(C(F)(F)F)n2)cc1 [Compound 3.12, 1,1-diethyl-3-[[4-[5-(trifluoromethyl)-1,2,4-oxadiazol-3-yl]phenyl]methyl]urea] yielded a pest or weed control at 200 ppm [1] of no less than 80%, a pest or weed control at 200 ppm [2] of no less than 80% and a pest or weed control at 200 ppm (Phakopsora pachyrhizi) of no less than 80%. It also gave an inhibition of growth at 20 ppm [3] of no less than 80%.

For COCC(=O)NCc1ccc(-c2noc(C(F)(F)F)n2)cc1F [Compound 1.38, N-[[2-fluoro-4-[5-(trifluoromethyl)-1,2,4-oxadiazol-3-yl]phenyl]methyl]-2-methoxy-acetamide], the pest or weed control at 200 ppm [1] was no less than 80%, the pest or weed control at 200 ppm [2] was no less than 80% and the pest or weed control at 200 ppm (Phakopsora pachyrhizi) was no less than 80%. The inhibition of growth at 20 ppm [3] was no less than 80%.

COCC(=O)NCCc1ccc(-c2noc(C(F)(F)F)n2)cc1 [Compound 1.86, 2-methoxy-N-[2-[4-[5-(trifluoromethyl)-1,2,4-oxadiazol-3-yl]phenyl]ethyl]acetamide] showed a pest or weed control at 200 ppm [1] of no less than 80%, a pest or weed control at 200 ppm [2] of no less than 80% and a pest or weed control at 200 ppm (Phakopsora pachyrhizi) of no less than 80%. It also gave an inhibition of growth at 20 ppm [3] of no less than 80%.

Work on CCC(C)C(=O)NCc1ccc(-c2noc(C(F)(F)F)n2)c(F)c1 (stereo not shown) [Compound 1.39, N-[[3-fluoro-4-[5-(trifluoromethyl)-1,2,4-oxadiazol-3-yl]phenyl]methyl]-2-methyl-butanamide] yielded a pest or weed control at 200 ppm [1] of no less than 80%, a pest or weed control at 200 ppm [2] of no less than 80% and a pest or weed control at 200 ppm (Phakopsora pachyrhizi) of no less than 80%. It also gave an inhibition of growth at 20 ppm [3] of no less than 80%.
